Data: ChEMBL document CHEMBL4800730 (2021)

Tests used:
[1] = molecular target: AMPK alpha2/beta1/gamma1 (Homo sapiens) (UniProt P54646+P54619+Q9Y478); assay: AMPK A2/B1/G1 SelectScreen Kinase panel (LifeTechnologies); format: protein-complex assay; conditions: Compound concentration 1.0 uM
[2] = molecular target: Tyrosine-protein kinase BTK (Homo sapiens) (UniProt Q06187); assay: BTK SelectScreen Kinase panel (LifeTechnologies); conditions: Compound concentration 1.0 uM
[3] = molecular target: Calcium/calmodulin-dependent protein kinase type IV (Homo sapiens) (UniProt Q16566); assay: CAMK4 (CaMKIV) SelectScreen Kinase panel (LifeTechnologies); conditions: Compound concentration 1.0 uM
[4] = molecular target: Tyrosine-protein kinase ITK/TSK (Homo sapiens) (UniProt Q08881); assay: ITK SelectScreen Kinase panel (LifeTechnologies); conditions: Compound concentration 1.0 uM
[5] = molecular target: Serine/threonine-protein kinase PLK1 (Homo sapiens) (UniProt P53350); assay: PLK1 SelectScreen Kinase panel (LifeTechnologies); conditions: Compound concentration 1.0 uM
[6] = molecular target: 5-hydroxytryptamine receptor 2B (Homo sapiens) (UniProt P41595); conditions: Compound concentration 10.0 uM
[7] = molecular target: D(1A) dopamine receptor (Homo sapiens) (UniProt P21728); conditions: Compound concentration 10.0 uM
[8] = molecular target: D(3) dopamine receptor (Homo sapiens) (UniProt P35462); conditions: Compound concentration 10.0 uM
[9] = molecular target: D(1B) dopamine receptor (Homo sapiens) (UniProt P21918); conditions: Compound concentration 10.0 uM
[10] = molecular target: Alpha-1A adrenergic receptor (Homo sapiens) (UniProt P35348); conditions: Compound concentration 10.0 uM
Alpha-1A adrenergic receptor (Homo sapiens), sequence (P35348 whole entry): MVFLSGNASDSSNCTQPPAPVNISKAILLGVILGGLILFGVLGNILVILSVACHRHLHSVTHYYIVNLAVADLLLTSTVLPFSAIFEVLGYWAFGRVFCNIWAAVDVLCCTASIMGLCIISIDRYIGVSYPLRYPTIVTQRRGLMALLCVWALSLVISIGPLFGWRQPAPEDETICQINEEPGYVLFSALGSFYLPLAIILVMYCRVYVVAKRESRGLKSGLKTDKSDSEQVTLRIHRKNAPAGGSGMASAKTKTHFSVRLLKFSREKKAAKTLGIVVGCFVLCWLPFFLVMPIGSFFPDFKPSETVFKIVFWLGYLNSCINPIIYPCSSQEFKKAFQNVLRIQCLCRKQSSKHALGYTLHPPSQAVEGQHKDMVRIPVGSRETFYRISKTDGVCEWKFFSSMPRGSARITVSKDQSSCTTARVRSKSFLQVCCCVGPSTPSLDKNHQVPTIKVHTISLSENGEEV

Tyrosine-protein kinase BTK (Homo sapiens), sequence (Q06187 whole entry): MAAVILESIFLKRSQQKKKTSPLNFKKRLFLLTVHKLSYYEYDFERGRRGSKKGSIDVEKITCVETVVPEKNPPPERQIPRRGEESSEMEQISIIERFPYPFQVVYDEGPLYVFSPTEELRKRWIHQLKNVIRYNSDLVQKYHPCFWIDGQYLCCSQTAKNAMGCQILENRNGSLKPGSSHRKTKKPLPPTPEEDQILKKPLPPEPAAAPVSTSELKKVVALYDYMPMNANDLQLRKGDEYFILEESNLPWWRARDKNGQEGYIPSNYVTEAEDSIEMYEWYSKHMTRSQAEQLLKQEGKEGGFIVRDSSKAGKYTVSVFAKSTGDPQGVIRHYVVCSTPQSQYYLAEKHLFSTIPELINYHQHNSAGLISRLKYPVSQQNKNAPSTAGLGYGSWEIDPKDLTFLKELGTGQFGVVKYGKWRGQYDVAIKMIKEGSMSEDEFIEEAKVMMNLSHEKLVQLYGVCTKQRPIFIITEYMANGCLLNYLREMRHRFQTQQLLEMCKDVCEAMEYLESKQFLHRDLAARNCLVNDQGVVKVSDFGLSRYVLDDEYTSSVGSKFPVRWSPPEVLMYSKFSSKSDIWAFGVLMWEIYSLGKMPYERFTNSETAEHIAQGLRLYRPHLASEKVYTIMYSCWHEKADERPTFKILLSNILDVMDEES
D(1A) dopamine receptor (Homo sapiens), sequence (P21728 whole entry): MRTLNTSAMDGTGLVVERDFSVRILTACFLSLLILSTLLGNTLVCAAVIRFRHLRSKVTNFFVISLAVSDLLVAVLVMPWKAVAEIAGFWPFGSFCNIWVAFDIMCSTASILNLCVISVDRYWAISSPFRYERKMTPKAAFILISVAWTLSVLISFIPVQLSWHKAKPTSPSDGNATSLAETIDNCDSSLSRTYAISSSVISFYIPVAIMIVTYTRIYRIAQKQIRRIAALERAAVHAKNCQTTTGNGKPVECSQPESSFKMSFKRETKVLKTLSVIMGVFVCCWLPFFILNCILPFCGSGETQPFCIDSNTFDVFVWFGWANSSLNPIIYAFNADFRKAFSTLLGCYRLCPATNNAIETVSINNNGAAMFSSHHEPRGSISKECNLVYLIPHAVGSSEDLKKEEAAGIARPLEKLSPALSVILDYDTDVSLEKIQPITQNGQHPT
Serine/threonine-protein kinase PLK1 (Homo sapiens), sequence (P53350 whole entry): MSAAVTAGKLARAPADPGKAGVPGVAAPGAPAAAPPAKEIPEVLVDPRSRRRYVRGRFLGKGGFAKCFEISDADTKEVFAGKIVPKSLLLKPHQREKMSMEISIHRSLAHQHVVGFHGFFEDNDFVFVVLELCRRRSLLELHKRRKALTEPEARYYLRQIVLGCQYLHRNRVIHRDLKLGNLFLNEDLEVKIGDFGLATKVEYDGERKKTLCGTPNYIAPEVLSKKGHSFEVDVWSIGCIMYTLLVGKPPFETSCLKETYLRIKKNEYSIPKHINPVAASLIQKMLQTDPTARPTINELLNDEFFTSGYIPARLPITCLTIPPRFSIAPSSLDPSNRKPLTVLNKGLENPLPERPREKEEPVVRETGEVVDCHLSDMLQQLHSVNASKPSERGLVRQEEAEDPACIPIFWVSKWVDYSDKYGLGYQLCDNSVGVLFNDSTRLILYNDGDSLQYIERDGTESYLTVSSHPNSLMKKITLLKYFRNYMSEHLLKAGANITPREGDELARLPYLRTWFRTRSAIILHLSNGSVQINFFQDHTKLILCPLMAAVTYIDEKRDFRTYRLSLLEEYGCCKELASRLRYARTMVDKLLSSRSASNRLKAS
5-hydroxytryptamine receptor 2B (Homo sapiens), sequence (P41595 whole entry): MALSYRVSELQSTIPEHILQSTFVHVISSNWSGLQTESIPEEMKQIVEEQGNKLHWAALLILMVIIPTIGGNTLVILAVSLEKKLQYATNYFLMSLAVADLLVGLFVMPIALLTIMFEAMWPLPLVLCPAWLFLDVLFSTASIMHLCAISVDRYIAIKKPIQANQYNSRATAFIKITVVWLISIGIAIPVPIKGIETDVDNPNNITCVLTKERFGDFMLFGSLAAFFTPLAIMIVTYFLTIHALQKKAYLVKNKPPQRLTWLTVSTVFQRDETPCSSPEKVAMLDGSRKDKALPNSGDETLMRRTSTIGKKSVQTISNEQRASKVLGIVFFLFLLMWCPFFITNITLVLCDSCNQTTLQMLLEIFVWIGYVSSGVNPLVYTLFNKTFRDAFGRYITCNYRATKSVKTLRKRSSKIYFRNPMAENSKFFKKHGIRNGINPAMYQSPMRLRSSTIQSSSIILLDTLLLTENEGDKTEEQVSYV
Tyrosine-protein kinase ITK/TSK (Homo sapiens), sequence (Q08881 whole entry): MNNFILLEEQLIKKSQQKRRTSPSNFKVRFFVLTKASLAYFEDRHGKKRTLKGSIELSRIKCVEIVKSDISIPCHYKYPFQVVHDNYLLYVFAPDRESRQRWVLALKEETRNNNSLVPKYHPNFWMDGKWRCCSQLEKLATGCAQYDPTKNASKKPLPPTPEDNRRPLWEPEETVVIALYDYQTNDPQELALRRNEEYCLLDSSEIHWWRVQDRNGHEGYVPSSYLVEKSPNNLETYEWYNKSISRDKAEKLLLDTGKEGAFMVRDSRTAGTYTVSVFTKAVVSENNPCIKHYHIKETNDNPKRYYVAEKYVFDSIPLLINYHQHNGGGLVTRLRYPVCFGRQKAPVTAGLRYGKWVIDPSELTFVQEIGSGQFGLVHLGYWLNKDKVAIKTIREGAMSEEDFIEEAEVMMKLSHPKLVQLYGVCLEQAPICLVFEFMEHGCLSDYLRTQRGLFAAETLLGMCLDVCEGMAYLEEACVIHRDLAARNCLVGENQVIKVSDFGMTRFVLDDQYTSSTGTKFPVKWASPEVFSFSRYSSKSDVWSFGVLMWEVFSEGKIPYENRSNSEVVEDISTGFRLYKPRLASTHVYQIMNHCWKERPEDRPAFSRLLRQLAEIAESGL
AMPK alpha2/beta1/gamma1 (Homo sapiens), sequence (P54619 whole entry partner): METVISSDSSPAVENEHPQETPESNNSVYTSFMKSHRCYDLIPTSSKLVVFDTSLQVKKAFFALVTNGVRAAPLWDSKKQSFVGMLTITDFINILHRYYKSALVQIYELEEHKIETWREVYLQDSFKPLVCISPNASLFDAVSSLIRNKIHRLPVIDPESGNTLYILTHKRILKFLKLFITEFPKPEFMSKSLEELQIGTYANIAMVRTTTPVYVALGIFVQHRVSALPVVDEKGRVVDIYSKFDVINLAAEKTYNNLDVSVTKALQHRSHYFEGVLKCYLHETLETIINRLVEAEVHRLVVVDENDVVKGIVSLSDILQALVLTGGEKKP
AMPK alpha2/beta1/gamma1 (Homo sapiens), sequence (P54646 whole entry): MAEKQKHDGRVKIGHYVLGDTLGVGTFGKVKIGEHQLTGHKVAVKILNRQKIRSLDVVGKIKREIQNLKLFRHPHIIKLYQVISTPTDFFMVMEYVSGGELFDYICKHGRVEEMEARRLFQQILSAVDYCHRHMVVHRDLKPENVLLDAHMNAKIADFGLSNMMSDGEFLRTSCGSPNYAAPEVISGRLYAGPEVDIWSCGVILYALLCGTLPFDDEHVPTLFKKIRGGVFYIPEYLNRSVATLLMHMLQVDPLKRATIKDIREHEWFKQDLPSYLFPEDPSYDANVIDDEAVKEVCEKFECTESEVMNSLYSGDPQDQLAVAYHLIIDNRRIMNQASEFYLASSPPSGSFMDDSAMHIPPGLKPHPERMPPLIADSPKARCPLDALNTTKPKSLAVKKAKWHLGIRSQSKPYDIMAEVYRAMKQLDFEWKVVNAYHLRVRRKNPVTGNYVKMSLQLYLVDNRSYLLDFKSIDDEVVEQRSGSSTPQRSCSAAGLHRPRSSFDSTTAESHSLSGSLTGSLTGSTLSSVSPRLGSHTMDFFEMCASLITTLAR
AMPK alpha2/beta1/gamma1 (Homo sapiens), sequence (Q9Y478 2-270 partner limits assumed): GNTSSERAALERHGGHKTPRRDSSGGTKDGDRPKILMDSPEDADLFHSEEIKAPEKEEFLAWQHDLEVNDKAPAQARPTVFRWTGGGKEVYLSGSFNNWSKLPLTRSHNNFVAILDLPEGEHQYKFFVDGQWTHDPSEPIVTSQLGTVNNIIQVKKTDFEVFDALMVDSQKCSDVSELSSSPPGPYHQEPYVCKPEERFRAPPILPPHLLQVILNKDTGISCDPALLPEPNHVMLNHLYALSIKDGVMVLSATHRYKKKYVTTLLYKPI
D(1B) dopamine receptor (Homo sapiens), sequence (P21918 whole entry): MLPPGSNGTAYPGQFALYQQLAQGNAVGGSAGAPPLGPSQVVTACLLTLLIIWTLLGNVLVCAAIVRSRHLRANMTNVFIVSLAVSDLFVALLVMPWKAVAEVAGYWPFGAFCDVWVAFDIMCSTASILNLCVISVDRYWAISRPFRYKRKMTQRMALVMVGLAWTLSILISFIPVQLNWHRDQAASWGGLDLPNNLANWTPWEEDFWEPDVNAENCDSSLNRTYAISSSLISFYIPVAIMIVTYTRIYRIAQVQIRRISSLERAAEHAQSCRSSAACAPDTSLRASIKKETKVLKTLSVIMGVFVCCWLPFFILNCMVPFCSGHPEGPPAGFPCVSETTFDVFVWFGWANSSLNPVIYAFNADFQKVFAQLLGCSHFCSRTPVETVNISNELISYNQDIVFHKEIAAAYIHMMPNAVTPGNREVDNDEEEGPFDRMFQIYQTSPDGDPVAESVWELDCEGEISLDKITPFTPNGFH

Structure (SMILES): C=CC(=O)Nc1ccc2[nH]c(=O)n(C3CCN(Cc4ccc(-c5nc6cc[nH]c(=O)c6cc5-c5ccccc5)cc4)CC3)c2c1 [Borussertib]
- inhibition [1]: 20%
- inhibition [2]: 6%
- inhibition [3]: 12%
- inhibition [4]: -1%
- inhibition [5]: -3%
- inhibition [6]: -2.56%
- inhibition [7]: 19.2%
- inhibition [8]: 20.9%
- inhibition [9]: 28.8%
- inhibition [10]: 72.2%
